# Experiments:
# Experiment in all cases: viability relative to DMSO control (fraction); higher = less drug effect (more viable cells)
# Conditions in all cases: 48 h
# Chlorambucil = compound: O=C(O)CCCc1ccc(N(CCCl)CCCl)cc1 [Chlorambucil]
# In short: (§1)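 Viability is given as CellTiter-Glo luminescence relative to the median of 16 inner DMSO wells. Fresh or cryopreserved primary mononuclear tumour cells from blood, bone marrow (both Ficoll-isolated) or processed lymph node were plated at 4 × 10^4 cells per well in 384-well plates against five pre-plated compound concentrations, one well each. Incubation lasted 48 h at 37 °C and 5% CO2 in RPMI-1640 with penicillin/streptomycin, L-glutamine and human serum.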
# SGC 0946 = compound: CC(C)N(CCCNC(=O)Nc1ccc(C(C)(C)C)cc1)C[C@H]1O[C@@H](n2cc(Br)c3c(N)ncnc32)[C@H](O)[C@@H]1O [SGC 0946]
# In short: as §1
# [1] = compound: O=C(NO)c1cccc(C(=O)NCCc2ccccc2)c1
# In short: as §1
# EPZ-6438 = compound: CCN(c1cc(-c2ccc(CN3CCOCC3)cc2)cc(C(=O)NCc2c(C)cc(C)[nH]c2=O)c1C)C1CCOCC1 [EPZ-6438]
# In short: as §1
# Entospletinib = compound: c1cn2cc(-c3ccc4cn[nH]c4c3)nc(Nc3ccc(N4CCOCC4)cc3)c2n1 [Entospletinib]
# In short: as §1
# Selinexor = compound: O=C(/C=C\n1cnc(-c2cc(C(F)(F)F)cc(C(F)(F)F)c2)n1)NNc1cnccn1 [Selinexor]
# In short: as §1
# [2] = compound: O=C(Nc1ccc2[nH]nc(-c3ccncc3)c2c1)[C@@H]1CCN(CC(=O)N2CCN(c3ccc(-c4ncccn4)cc3)CC2)C1
# In short: as §1
# Venetoclax = compound: CC1(C)CCC(CN2CCN(c3ccc(C(=O)NS(=O)(=O)c4ccc(NCC5CCOCC5)c([N+](=O)[O-])c4)c(Oc4cnc5[nH]ccc5c4)c3)CC2)=C(c2ccc(Cl)cc2)C1 [Venetoclax]
# In short: as §1
# Bendamustine = compound: Cn1c(CCCC(=O)O)nc2cc(N(CCCl)CCCl)ccc21 [Bendamustine]
# In short: as §1
test system,measurement,setting,value
primary DLBCL patient cells (S049),viability,Chlorambucil; 0.032 µM,0.96
same,viability,Chlorambucil; 0.16 µM,0.976
same,viability,Chlorambucil; 0.8 µM,1.05
same,viability,Chlorambucil; 4 µM,0.952
same,viability,Chlorambucil; 20 µM,0.589
same,viability,SGC 0946; 0.024 µM,0.919
same,viability,SGC 0946; 0.12 µM,1.05
same,viability,SGC 0946; 0.6 µM,0.926
same,viability,SGC 0946; 3 µM,0.719
same,viability,SGC 0946; 15 µM,0.183
same,viability,[1]; 0.024 µM,0.886
same,viability,[1]; 0.12 µM,0.986
same,viability,[1]; 0.6 µM,0.966
same,viability,[1]; 3 µM,1.02
same,viability,[1]; 15 µM,1.05
same,viability,EPZ-6438; 0.024 µM,1.08
same,viability,EPZ-6438; 0.12 µM,1.08
same,viability,EPZ-6438; 0.6 µM,1.03
same,viability,EPZ-6438; 3 µM,1.05
same,viability,EPZ-6438; 15 µM,0.811
same,viability,Entospletinib; 0.024 µM,0.951
same,viability,Entospletinib; 0.12 µM,0.834
same,viability,Entospletinib; 0.6 µM,0.804
same,viability,Entospletinib; 3 µM,0.886
same,viability,Entospletinib; 15 µM,0.892
same,viability,Selinexor; 0.008 µM,0.54
same,viability,Selinexor; 0.04 µM,0.486
same,viability,Selinexor; 0.2 µM,0.499
same,viability,Selinexor; 1 µM,0.669
same,viability,Selinexor; 5 µM,0.586
same,viability,[2]; 0.008 µM,0.611
same,viability,[2]; 0.04 µM,0.53
same,viability,[2]; 0.2 µM,0.396
same,viability,[2]; 1 µM,0.304
same,viability,[2]; 5 µM,0.245
same,viability,Venetoclax; 0.00064 µM,0.898
same,viability,Venetoclax; 0.0032 µM,0.593
same,viability,Venetoclax; 0.016 µM,0.149
same,viability,Venetoclax; 0.08 µM,0.0521
same,viability,Venetoclax; 0.4 µM,0.0447
same,viability,Bendamustine; 0.032 µM,0.986
same,viability,Bendamustine; 0.16 µM,0.994
same,viability,Bendamustine; 0.8 µM,1.05
same,viability,Bendamustine; 4 µM,1.11
same,viability,Bendamustine; 20 µM,0.937
primary DLBCL patient cells (S076),viability,Chlorambucil; 0.032 µM,1.02
same,viability,Chlorambucil; 0.16 µM,0.886
same,viability,Chlorambucil; 0.8 µM,1.03
same,viability,Chlorambucil; 4 µM,0.858
same,viability,Chlorambucil; 20 µM,0.431
same,viability,SGC 0946; 0.024 µM,1.15
same,viability,SGC 0946; 0.12 µM,1.16
same,viability,SGC 0946; 0.6 µM,0.962
same,viability,SGC 0946; 3 µM,1.06
same,viability,SGC 0946; 15 µM,0.534
same,viability,[1]; 0.024 µM,1.15
same,viability,[1]; 0.12 µM,1.12
same,viability,[1]; 0.6 µM,1.09
same,viability,[1]; 3 µM,1.13
same,viability,[1]; 15 µM,1.17
same,viability,EPZ-6438; 0.024 µM,1.13
same,viability,EPZ-6438; 0.12 µM,1.09
same,viability,EPZ-6438; 0.6 µM,1.18
same,viability,EPZ-6438; 3 µM,1.17
same,viability,EPZ-6438; 15 µM,1.03
same,viability,Entospletinib; 0.024 µM,1.05
same,viability,Entospletinib; 0.12 µM,0.954
same,viability,Entospletinib; 0.6 µM,0.927
same,viability,Entospletinib; 3 µM,0.979
same,viability,Entospletinib; 15 µM,1.05
same,viability,Selinexor; 0.008 µM,0.97
same,viability,Selinexor; 0.04 µM,0.943
same,viability,Selinexor; 0.2 µM,0.819
same,viability,Selinexor; 1 µM,0.563
same,viability,Selinexor; 5 µM,0.331
same,viability,[2]; 0.008 µM,0.991
same,viability,[2]; 0.04 µM,0.912
same,viability,[2]; 0.2 µM,0.796
same,viability,[2]; 1 µM,0.694
same,viability,[2]; 5 µM,0.622
same,viability,Venetoclax; 0.00064 µM,1.09
same,viability,Venetoclax; 0.0032 µM,1.01
same,viability,Venetoclax; 0.016 µM,0.622
same,viability,Venetoclax; 0.08 µM,0.451
same,viability,Venetoclax; 0.4 µM,0.374
same,viability,Bendamustine; 0.032 µM,0.945
same,viability,Bendamustine; 0.16 µM,1.1
same,viability,Bendamustine; 0.8 µM,1.08
same,viability,Bendamustine; 4 µM,0.965
same,viability,Bendamustine; 20 µM,0.759
primary T-NHL patient cells (S058),viability,Chlorambucil; 0.032 µM,1.02
same,viability,Chlorambucil; 0.16 µM,0.938
same,viability,Chlorambucil; 0.8 µM,0.932
same,viability,Chlorambucil; 4 µM,0.81
same,viability,Chlorambucil; 20 µM,0.262
same,viability,SGC 0946; 0.024 µM,1.19
same,viability,SGC 0946; 0.12 µM,1.12
same,viability,SGC 0946; 0.6 µM,0.867
same,viability,SGC 0946; 3 µM,1.01
same,viability,SGC 0946; 15 µM,0.486
same,viability,[1]; 0.024 µM,1.02
same,viability,[1]; 0.12 µM,1.31
same,viability,[1]; 0.6 µM,1.07
same,viability,[1]; 3 µM,1.02
same,viability,[1]; 15 µM,1.08
same,viability,EPZ-6438; 0.024 µM,1.21
same,viability,EPZ-6438; 0.12 µM,1.24
same,viability,EPZ-6438; 0.6 µM,1.03
same,viability,EPZ-6438; 3 µM,1.16
same,viability,EPZ-6438; 15 µM,0.95
same,viability,Entospletinib; 0.024 µM,1.03
same,viability,Entospletinib; 0.12 µM,1.09
same,viability,Entospletinib; 0.6 µM,0.875
same,viability,Entospletinib; 3 µM,1.04
same,viability,Entospletinib; 15 µM,1.06
same,viability,Selinexor; 0.008 µM,0.967
same,viability,Selinexor; 0.04 µM,0.877
same,viability,Selinexor; 0.2 µM,0.806
same,viability,Selinexor; 1 µM,0.709
same,viability,Selinexor; 5 µM,0.469
same,viability,[2]; 0.008 µM,1.04
same,viability,[2]; 0.04 µM,1.1
same,viability,[2]; 0.2 µM,1.01
same,viability,[2]; 1 µM,0.989
same,viability,[2]; 5 µM,0.908
same,viability,Venetoclax; 0.00064 µM,1.06
same,viability,Venetoclax; 0.0032 µM,1.13
same,viability,Venetoclax; 0.016 µM,0.921
same,viability,Venetoclax; 0.08 µM,0.718
same,viability,Venetoclax; 0.4 µM,0.547
same,viability,Bendamustine; 0.032 µM,0.971
same,viability,Bendamustine; 0.16 µM,1.01
same,viability,Bendamustine; 0.8 µM,0.925
same,viability,Bendamustine; 4 µM,0.868
same,viability,Bendamustine; 20 µM,0.564

# Reference: the supplement of paper PMC10733146
